Key:
5×FAD mice = assay: Novel object recognition (NOR); assay type: in vivo, mouse
Procedure: (§1) Parathyroid hormone (human) was purchased from TOCRIS Bioscience (Cat #3011/1, Abingdon, United Kingdom). WT or 5×FAD mice (both male and female) were treated with PTH1-34 intermittently [once daily injection of hPTH1-34 (50 μg/Kg) or vehicle (0.9% sodium chloride) (as a control) by subcutaneous injection, starting at 2-MO, 5 days per week] as described previously. Mice were then subjected to behavioral tests and sacrificed for examinations of their bone and brain phenotypes at the indicated ages.
Mice (female and male) at the age of ˜5-MO were subjected to behavioral studies. The experimental procedures are described as previously. […] The total arm entries and the number of tri-ads were recorded to quantify the percentage of spontaneous alternation. For novel object recognition (NOR), which tests mouse's memory ability for a novel object, 20 min were recorded to analyze the time to explore the old object vs. the new object of each mouse. […] During test trials, one of the objects was replaced with a new object and mice were free to explore for another 20 min, and the time spent exploring the new object and the old object was recorded. The discrimination index is quantified as the novelty object preference, which is the time spent exploring the new object minus the time exploring the old object over the total exploration time.

[1] = system: serum inflammatory cytokines; assay: Mouse serum cytokine array; assay type: in vivo
Procedure: as §1
Serum samples from 5×FAD, Tg2576, and their WT control female mice (6˜MO) were collected and used for serum cytokine detection. Cytokines were measured with Mouse Cytokine Array Panel A (R&D Systems, cat #ARY006, Minneapolis, MN, USA). Briefly, the mixture of serum and the biotinylated detection antibodies cocktail is incubated with a Mouse Cytokine Array membrane. Any cytokine/detection antibody complex present was bound on the membrane by its cognate immobilized capture antibody. After washing off the unbound protein, streptavidin-horseradish peroxidase and chemiluminescent detection reagents were added to generate light signals. The light produced at each spot is proportional to the amount of cytokine binding.

[2] = system: primary cultured astrocytes from WT and 5×FAD pups; assay: PTH1-34 induced signaling in primary cultured astrocytes (Western blot); assay type: cell-based, mouse; settings: 100 ng/ml PTH1-34, time course
Procedure: Total proteins from cortex, hippocampus, or cultured astrocytes were extracted using RIPA lysis buffer [50 mM Tris-HCl (pH7.5), 150 mM NaCl, 1 mM EDTA, 1% v/v NP-40, 0.1% SDS, 1% sodium deoxycholate supplemented with Protease Inhibitor Cocktail (Roche) and 1 mM PMSF] and analyzed by Western Blot. Lysates were cleared by centrifugation at 12,000 g for 15 min at 4° C. to remove debris and to obtain homogenates. Homogenates samples were resolved by SDS-PAGE (8˜15%) gels and then electroblotted onto nitrocellulose membranes (Cat #1620112, Bio-Rad Laboratories). Membranes were blocked with 5% BSA (w/v) in TBS-Tween (50 mM Tris, 150 mM NaCl, pH7.6 and 0.1% v/v Tween-20) for 1 h and then probed with indicated primary antibodies overnight in 4° C. Membranes were washed with TBST 4 times and incubated with HRP-conjugated secondary antibodies (1:5000 in TBST) at room temperature for 1 h. After washing with TBST 3 times, antibody reactivity was detected by the Enhanced Chemiluminescence (ECL) detection system (Amersham Biosciences). Band density of proteins was normalized in relation to loading control and analyzed using NIH ImageJ software. Primary anti-bodies used were as follows: IBA1 (ab178846, rabbit), p16 (ab51243, rabbit), p53 (ab131442, rabbit), and anti-beta Actin (ab8226, mouse) from Abcam (Cambridge, MA, USA); GFAP (12389, rabbit), p-CREB (Ser133) (9198S, rabbit), p-AKT(S473) (4060P, rabbit), AKT (9272S, rabbit) and GAPDH (97166S, mouse) from Cell Signaling (Danvers, MA, USA); PTH1R (PA5-77,689, rabbit) from Invitrogen (Carlsbad, CA, USA); p-ERK1/2 (sc-136521, mouse) and ERK1/2 (sc-514302, mouse) from Santa Cruz Biotechnology (Santa Cruz, CA, USA).
(§2) Astrocyte culture was performed according to the standard protocol with some modifications as described in previous literature. In brief, the cerebral cortex and hippocampus of postnatal day 3 (P3) female pups were dissected under a stereomicroscope and placed in ice-cold calcium- and magnesium-free HBSS (Hanks Balanced Salt Solution). […]

5×FAD astrocytes = assay: Senescence markers in cultured astrocytes (RT-PCR, SA-β-gal staining); assay type: cell-based, mouse; settings: cultured 5×FAD astrocytes, 100 ng/ml, 24 h
Procedure: Total RNA was extracted from cortex, hippocampus, or cultured astrocytes using a TRizol reagent (Invitrogen, cat #15596-026, Carlsbad, CA, USA) as previously described. Purified RNA (1-5 μg) was used for cDNA synthesis with the Revert Aid First Strand cDNA Synthesis Kit (Thermo Scientific, cat #K1621, Waltham, MA, USA). The cDNA products were subjected to subsequent quantitative PCR (qPCR) using the QuantiFast SYBR Green PCR Kit (QIA-GEN, cat #204057, Hilden, Germany) with a qPCR System (StepOne Plus). Each sample was repeated at least 3 times, and the mRNA level was normalized to GAPDH using the 2^−ΔΔCt method.
as §2, with “Solution). The tissues were digested with 2.5% trypsin-EDTA, 3 ml for each mouse, at 37° C. for 20 min with shaking slightly every 5 min.” for “Solution).”
SA-β-gal staining of cultured astrocytes was performed as previously reported. […] The SA-β-gal intensity was quantified by the NIH ImageJ software.

CC[C@H](C)[C@H](NC(=O)[C@H](CCC(=O)O)NC(=O)[C@H](CO)NC(=O)[C@@H](NC(=O)[C@@H](N)CO)C(C)C)C(=O)N[C@@H](CCC(N)=O)C(=O)N[C@@H](CC(C)C)C(=O)N[C@@H](CCSC)C(=O)N[C@@H](Cc1cnc[nH]1)C(=O)N[C@@H](CC(N)=O)C(=O)N[C@@H](CC(C)C)C(=O)NCC(=O)N[C@@H](CCCCN)C(=O)N[C@@H](Cc1cnc[nH]1)C(=O)N[C@@H](CC(C)C)C(=O)N[C@@H](CC(N)=O)C(=O)N[C@@H](CO)C(=O)N[C@@H](CCSC)C(=O)N[C@@H](CCC(=O)O)C(=O)N[C@@H](CCCN=C(N)N)C(=O)N[C@H](C(=O)N[C@@H](CCC(=O)O)C(=O)N[C@@H](Cc1c[nH]c2ccccc12)C(=O)N[C@@H](CC(C)C)C(=O)N[C@@H](CCCN=C(N)N)C(=O)N[C@@H](CCCCN)C(=O)N[C@@H](CCCCN)C(=O)N[C@@H](CC(C)C)C(=O)N[C@@H](CCC(N)=O)C(=O)N[C@@H](CC(=O)O)C(=O)N[C@H](C(=O)N[C@@H](Cc1cnc[nH]1)C(=O)N[C@@H](CC(N)=O)C(=O)N[C@@H](Cc1ccccc1)C(=O)O)C(C)C)C(C)C [PTH1-34]
NOR, recognition of the novel object (discrimination index) (5×FAD mice; 5×FAD female mice ~5-MO vs 5×FAD Veh, 50 μg/Kg s.c. intermittent): improved recognition of the novel object
NOR, cognitive function in novel object recognition (5×FAD mice; 5×FAD male mice ~5-MO vs Veh): Little to no improvement
elevated serum factors (IL-1rα, IL-2, IL-3, IL-4, IL-10, CXCL9, CCL3) ([1]; 6-MO 5×FAD female mice): all reduced
serum inflammation-associated factors IL1β, TNFα, TREM-1, CCL11, CCL5 ([1]; 6-MO 5×FAD female mice): reduced
serum factor CCL4 ([1]; 6-MO 5×FAD female mice (CCL4 decreased in 5×FAD)): restored
p-AKT protein level [2]: little effect
p-CREB protein level [2]: increases p-CREB
p-ERK protein level [2]: little effect
SA-β-gal+ astrocytes (5×FAD astrocytes): attenuated
p53 expression (RT-PCR) (5×FAD astrocytes): diminished
